Measurements from patent publication US20210070735A1, “RIP1 INHIBITORY COMPOUNDS AND METHODS FOR MAKING AND USING THE SAME” (Rigel Pharmaceuticals, Inc., priority 2019, published 2021).

Key:
RIPK1 = molecular target: T1, RIPK1 (Homo sapiens, UniProt Q13546); experiment: RIPK1 ADP-Glo biochemical kinase assay; settings: 30 min at 30° C.
T1 sequence (Q13546 1-671): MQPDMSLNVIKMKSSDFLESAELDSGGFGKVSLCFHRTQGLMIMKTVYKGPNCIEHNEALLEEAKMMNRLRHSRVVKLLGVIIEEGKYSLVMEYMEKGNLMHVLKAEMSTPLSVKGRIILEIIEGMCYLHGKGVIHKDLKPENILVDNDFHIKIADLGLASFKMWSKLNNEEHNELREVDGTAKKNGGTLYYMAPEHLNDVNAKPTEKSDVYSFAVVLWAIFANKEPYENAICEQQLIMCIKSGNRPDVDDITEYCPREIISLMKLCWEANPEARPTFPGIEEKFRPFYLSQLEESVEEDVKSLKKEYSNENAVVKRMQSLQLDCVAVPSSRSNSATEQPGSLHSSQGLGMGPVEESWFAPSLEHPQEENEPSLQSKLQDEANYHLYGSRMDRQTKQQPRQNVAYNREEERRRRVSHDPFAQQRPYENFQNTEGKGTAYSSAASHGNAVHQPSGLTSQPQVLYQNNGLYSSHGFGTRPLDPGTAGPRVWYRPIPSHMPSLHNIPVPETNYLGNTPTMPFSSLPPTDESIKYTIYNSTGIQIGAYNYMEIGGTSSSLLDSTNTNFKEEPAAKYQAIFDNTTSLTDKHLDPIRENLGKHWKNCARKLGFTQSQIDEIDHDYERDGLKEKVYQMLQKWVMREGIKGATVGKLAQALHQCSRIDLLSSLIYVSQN
Method: The final reaction volume was 5.0 μl.
Adding 5 μl of ADP-Glo™ terminated the reaction.

murine RIP1 = molecular target: T2, murine RIP1 (Mus musculus, UniProt Q60855); experiment: L929 cell necroptosis assay (TNFa + zVAD, CellTiter-Glo); type: cell-based
T2 construct: U937 and L929 cells were obtained from the American Type Culture Collection; host or cells: L929
T2 sequence (Q60855 1-656): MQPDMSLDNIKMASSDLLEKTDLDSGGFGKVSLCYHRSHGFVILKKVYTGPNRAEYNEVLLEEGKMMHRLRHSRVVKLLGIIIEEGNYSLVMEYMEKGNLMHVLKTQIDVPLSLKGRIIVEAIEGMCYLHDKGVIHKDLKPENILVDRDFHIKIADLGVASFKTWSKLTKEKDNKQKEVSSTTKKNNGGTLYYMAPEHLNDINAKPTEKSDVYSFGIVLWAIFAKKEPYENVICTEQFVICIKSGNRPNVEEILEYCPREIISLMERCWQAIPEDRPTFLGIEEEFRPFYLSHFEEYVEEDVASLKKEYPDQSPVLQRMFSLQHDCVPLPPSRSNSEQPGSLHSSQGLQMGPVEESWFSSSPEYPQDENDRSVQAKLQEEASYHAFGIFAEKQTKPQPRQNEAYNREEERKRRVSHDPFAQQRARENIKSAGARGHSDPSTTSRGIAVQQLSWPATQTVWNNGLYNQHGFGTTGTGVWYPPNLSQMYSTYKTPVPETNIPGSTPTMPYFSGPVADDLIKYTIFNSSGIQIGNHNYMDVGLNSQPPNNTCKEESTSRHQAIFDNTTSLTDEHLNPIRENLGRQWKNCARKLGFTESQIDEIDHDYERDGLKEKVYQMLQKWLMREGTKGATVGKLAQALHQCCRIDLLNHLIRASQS
Method: (§1) In this example, U937 and L929 cells were exposed to compounds of the present disclosure and a cell necroptosis assay was conducted to evaluate the compounds' activity against human RIP1 and murine RIP1.
(§2) U937 and L929 cells were obtained from the American Type Culture Collection (Manassa, Va., USA). Both cells were maintained in logarithmic growth phase in complete RPMI 1640 media (Sigma, ST Louis, Mo., USA) supplemented with 10% fetal bovine serum (Sigma, ST Louis, Mo., USA) at 37° C. with 5% CO2. For necroptosis assay, L929 cells were plated for 18 h in 100 µL/well medium at 10K cells/well in Costar 96-well black clear-bottom plates (Fisher Scientific, Hampton, N.H., USA); U937 cells were plated on the day of the assay in 50 µL/well medium containing 60 uM zVAD-fmk (Lonza, Basel, Switzerland) at 50K cells/well. Medium from L929 cells were removed from the 96-well plates and replaced with 50 µL/well new medium containing 40 uM zVAD-fmk. Each compound of the present disclosure evaluated in this example was serially diluted in DMSO from 2.5 mM in 4-fold dilutions, and then diluted 1:125 in complete medium. 50 µL/well 2× of the compound was then added to the cells in the plates. The cells were pre-incubated with the compound for 1 hour at 37° C. with 5% CO2 and before addition of 10 µL/well 11×TNFa (Peprotech, Rocky Hill, N.J., USA) to give a final concentration of 2 ng/mL for TNFa. The relative amount of necroptosis cells was determined by luminescent using a Wallac Victor2 Luminometer (PerkinElmer, Waltham, Mass., USA) and a CellTiter-Glo® Luminescent Cell Viability Reagent Assay (Promega, Madison, Wis., USA) added per manufacturer instructions after 18 hours of TNFa stimulation at 37° C. with 5% CO2.Results from this example are summarized in Table 2. This example establishes that embodiments of the compounds described herein have unexpectedly potent activity against human RIP1 and murine RIP1, which allows their assessment in in vivo mouse models of disease.

human RIP1 = molecular target: T3, human RIP1 (Homo sapiens, UniProt Q13546); experiment: U937 cell necroptosis assay (TNFa + zVAD, CellTiter-Glo); type: cell-based; settings: U937 Zvad TNF CTG Recovery, U937 cells, TNFa 2 ng/mL + zVAD-fmk, 18 hours
T3 construct: U937 and L929 cells were obtained from the American Type Culture Collection; host or cells: U937
T3 sequence (Q13546 1-671): T1 sequence (Q13546 1-671)
Method: as §1, §2

Row | SMILES | IC50 (RIPK1) [nM] | IC50 (murine RIP1) [nM] | IC50 (human RIP1) [nM]
1 | CN1C(=O)C(NC(=O)c2n[nH]c(Cc3ccccc3)n2)CCc2ccc(C#CC3(O)COC3)cc21 (racemic) [Compound I-16, (±)-5-Benzyl-N-(8-((3-hydroxyoxetan-3-yl)ethynyl)-1-methyl-2-oxo-2,3,4,5-tetrahydro-1H-benzo[b]azepin-3-yl)-1H-1,2,4-triazole-3-carboxamide] | 229 | 150 | 8.4
2 | CN1C(=O)C(NC(=O)c2n[nH]c(Cc3ccccc3)n2)CCc2ccc(C#Cc3ccncc3)cc21 (racemic) [Compound I-19, (±)-5-Benzyl-N-(1-methyl-2-oxo-8-(pyridin-4-ylethynyl)-2,3,4,5-tetrahydro-1H-benzo[b]azepin-3-yl)-1H-1,2,4-triazole-3-carboxamide] | 42.7 | 10 | 3.4
3 | CN1C(=O)C(NC(=O)c2n[nH]c(Cc3ccccc3)n2)CCc2ccc(C#Cc3ccccn3)cc21 (racemic) [Compound I-20, (±)-5-Benzyl-N-(1-methyl-2-oxo-8-(pyridin-2-ylethynyl)-2,3,4,5-tetrahydro-1H-benzo[b]azepin-3-yl)-1H-1,2,4-triazole-3-carboxamide] | 37 | 8.5 | 3.8
4 | CN1C(=O)C(NC(=O)n2cc(Cc3ccccc3)cn2)CCc2ccc(N3CC4(CCOCC4)C3)cc21 (racemic) [Compound I-23, (±)-4-Benzyl-N-(1-methyl-2-oxo-8-(7-oxa-2-azaspiro[3.5]nonan-2-yl)-2,3,4,5-tetrahydro-1H-benzo[b]azepin-3-yl)-1H-pyrazole-1-carboxamide] | 61.2 | 212 | 1.7
5 | CN1C(=O)C(NC(=O)c2cc(Oc3ccccc3)ccn2)CCc2ccc(N3CCC4(CCOCC4)CC3)cc21 (racemic) [Compound I-27, (±)-N-(1-Methyl-2-oxo-8-(3-oxa-9-azaspiro[5.5]undecan-9-yl)-2,3,4,5-tetrahydro-1H-benzo[b]azepin-3-yl)-4-phenoxypicolinamide] | 46.4 | 641 | 4.8
6 | [2H]C([2H])([2H])N1C(=O)C(NC(=O)c2cc(Oc3ccccc3)ccn2)CCc2ccc(N3CC4(CCOCC4)C3)cc21 (racemic) [Compound I-29, (±)-N-(1-(Methyl-d3)-2-oxo-8-(7-oxa-2-azaspiro[3.5]nonan-2-yl)-2,3,4,5-tetrahydro-1H-benzo[b]azepin-3-yl)-4-phenoxypicolinamide] | 41.3 | 1420 | 6.3
7 | CN1C(=O)[C@@H](NC(=O)n2cc(Cc3ccc(F)cc3)cn2)CCc2ccc(C#CC3(O)COC3)cc21 [Compound I-1, (S)-4-(4-fluorobenzyl)-N-(8-((3-hydroxyoxetan-3-yl)ethynyl)-1-methyl-2-oxo-2,3,4,5-tetrahydro-1H-benzo[b]azepin-3-yl)-1H-pyrazole-1-carboxamide] | 23.4 | 2.4 | 0.3
8 | CN1C(=O)[C@@H](NC(=O)c2n[nH]c(Cc3ccccc3)n2)CCc2ccc(C#CC(C)(C)O)cc21 [Compound I-10, (S)-5-Benzyl-N-(8-(3-hydroxy-3-methylbut-1-yn-1-yl)-1-methyl-2-oxo-2,3,4,5-tetrahydro-1H-benzo[b]azepin-3-yl)-1H-1,2,4-triazole-3-carboxamide] | 39.2 | 37.8 | 1.7
9 | CN1C(=O)[C@@H](NC(=O)c2n[nH]c(Cc3ccccc3)n2)CCc2ccc(N3CC4(CCOCC4)C3)cc21 [Compound I-17, (S)-5-Benzyl-N-(1-methyl-2-oxo-8-(7-oxa-2-azaspiro[3.5]nonan-2-yl)-2,3,4,5-tetrahydro-1H-benzo[b]azepin-3-yl)-1H-1,2,4-triazole-3-carboxamide] | 36.6 | 229 | 3.9

More lines, main results first:

Row | IC50 (RIPK1) [nM] | SMILES | IC50 (murine RIP1) [nM] | IC50 (human RIP1) [nM]
10 | 58.1 | CN1C(=O)C(NC(=O)c2cc(Oc3ccccc3)ccn2)CCc2ccc(C#CC(C)(C)O)cc21 (racemic) [Compound I-24, (±)-N-(8-(3-Hydroxy-3-methylbut-1-yn-1-yl)-1-methyl-2-oxo-2,3,4,5-tetrahydro-1H-benzo[b]azepin-3-yl)-4-phenoxypicolinamide] | 13 | 1.9
11 | 68.9 | CN1C(=O)C(NC(=O)c2cc(Oc3ccccc3)ccn2)CCc2ccc(CN3CCN(c4ccncc4)CC3)cc21 (racemic) [Compound I-25, (±)-N-(1-Methyl-2-oxo-8-((4-(pyridin-4-yl)piperazin-1-yl)methyl)-2,3,4,5-tetrahydro-1H-benzo[b]azepin-3-yl)-4-phenoxypicolinamide] | 37100 | 278
12 | 32.2 | [2H]C([2H])([2H])N1C(=O)C(NC(=O)c2cc(Oc3ccccc3)ccn2)CCc2ccc(C#CC(C)(C)O)cc21 (racemic) [Compound I-28, (±)-N-(8-(3-Hydroxy-3-methylbut-1-yn-1-yl)-1-(methyl-d)-2-oxo-2,3,4,5-tetrahydro-1H-benzo[b]azepin-3-yl)-4-phenoxypicolinamide] | 20.9 | 2.4
13 | 603 | CN1C(=O)C(NC(=O)c2cc(Oc3ccccc3)ccn2)CCc2ccc(N3CC4(CCCCC4)C3)cc21 (racemic) [Compound I-30, (±)-N-(1-Methyl-2-oxo-8-(2-azaspiro[3.5]nonan-2-yl)-2,3,4,5-tetrahydro-1H-benzo[b]azepin-3-yl)-4-phenoxypicolinamide] | 1170 | 16.2
14 | 54 | CN1C(=O)C(NC(=O)c2cc(Oc3ccccc3)ccn2)CCc2ccc(N3CC4(CCOCC4)C3)cc21 (racemic) [Compound I-31, (±)-N-(1-Methyl-2-oxo-8-(7-oxa-2-azaspiro[3.5]nonan-2-yl)-2,3,4,5-tetrahydro-1H-benzo[b]azepin-3-yl)-4-phenoxypicolinamide] | 1680 | 17.6
15 | 33.4 | CN1C(=O)[C@@H](NC(=O)c2cc(Oc3ccccc3)ccn2)CCc2ccc(-c3ccc(C#CC(C)(C)O)nc3)cc21 [Compound I-2, (S)—N-(8-(6-(3-hydroxy-3-methylbut-1-yn-1-yl)pyridin-3-yl)-1-methyl-2-oxo-2,3,4,5-tetrahydro-1H-benzo[b]azepin-3-yl)-4-phenoxypicolinamide] | 142 | 2
